Test results published in patent publication US12077503B2, “Substituted cyclic amides and their use as herbicides” (FMC CORPORATION, priority 2015, dated 2024).

Experiments:
Type in all cases: in vivo
corn (Zea mays) = test: Test A postemergence
Procedure, shortened: (§1)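 Ratings of 0 (no effect) to 100 (complete control) come from visual comparison with untreated controls roughly 10 d after treatment. Test chemicals, formulated in a non-phytotoxic solvent mixture with surfactant, were applied either as a preemergence directed soil spray on seeded soil or postemergence to one- to two-leaf plants 2 to 10 cm tall.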

[1] = test system: barnyardgrass (Echinochloa crus-galli); test: Test A postemergence
Procedure, shortened: as §1

[2] = test system: pigweed (Amaranthus retroflexus); test: Test A postemergence
Procedure, shortened: as §1

[3] = test system: giant foxtail (Setaria faberii); test: Test A postemergence
Procedure, shortened: as §1

[4] = test system: Galium (catchweed bedstraw, Galium aparine); test: Test A postemergence
Procedure, shortened: as §1

[5] = test system: blackgrass (Alopecurus myosuroides); test: Test A postemergence
Procedure, shortened: as §1

Kochia (Kochia scoparia) [6] = test: Test A postemergence
Procedure, shortened: as §1

[7] = test system: ryegrass, Italian (Italian ryegrass, Lolium multiflorum); test: Test A postemergence
Procedure, shortened: as §1

[8] = test system: wheat (Triticum aestivum); test: Test A postemergence
Procedure, shortened: as §1

[9] = test system: ragweed (common ragweed, Ambrosia elatior); test: Test A postemergence
Procedure, shortened: as §1

[10] = test system: barnyardgrass (Echinochloa crus-galli); test: Test B flooded paddy test; conditions: Flood, 250 g ai/ha; 0 to 100 scale where 0 is no effect and 100 is complete control; 13 to 15 d
Procedure, shortened: (§2)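 Percent control, visually estimated after 13–15 d in the greenhouse on a 0–100 basis, compares treated pots with untreated ones; compound was put into paddy water 3 cm above the soil when plants had two leaves.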

[11] = test system: ducksalad (Heteranthera limosa); test: Test B flooded paddy test; conditions: Flood, 250 g ai/ha; 0 to 100 scale where 0 is no effect and 100 is complete control; 13 to 15 d
Procedure, shortened: as §2

rice (Oryra sativa) = test: Test B flooded paddy test; conditions: Flood, 250 g ai/ha; 0 to 100 scale where 0 is no effect and 100 is complete control; 13 to 15 d
Procedure, shortened: as §2

[12] = test system: sedge, umbrella (small-flower umbrella sedge, Cyperus difformis); test: Test B flooded paddy test; conditions: Flood, 250 g ai/ha; 0 to 100 scale where 0 is no effect and 100 is complete control; 13 to 15 d
Procedure, shortened: as §2

[13] = test system: barnyardgrass (Echinochloa crus-galli); test: Test A preemergence; conditions: for Plant response rating, Barnyardgrass: 125 g ai/ha, preemergence, 0 to 100 scale (0 no effect, 100 complete control)
Procedure, shortened: as §1

[14] = test system: pigweed (Amaranthus retroflexus); test: Test A preemergence; conditions: for Plant response rating, Pigweed: 125 g ai/ha, preemergence, 0 to 100 scale (0 no effect, 100 complete control)
[15] = test system: giant foxtail (Setaria faberii); test: Test A preemergence; conditions: for Plant response rating, Foxtail, Giant: 125 g ai/ha, preemergence, 0 to 100 scale (0 no effect, 100 complete control)
Procedure, shortened: as §1

Kochia (Kochia scoparia) [16] = test: Test A preemergence; conditions: for Plant response rating, Kochia: 125 g ai/ha, preemergence, 0 to 100 scale (0 no effect, 100 complete control)
Procedure, shortened: as §1

[17] = test system: ryegrass, Italian (Italian ryegrass, Lolium multiflorum); test: Test A preemergence; conditions: for Plant response rating, Ryegrass, Italian: 125 g ai/ha, preemergence, 0 to 100 scale (0 no effect, 100 complete control)
Procedure, shortened: as §1

[18] = test system: ragweed (common ragweed, Ambrosia elatior); test: Test A preemergence; conditions: for Plant response rating, Ragweed: 125 g ai/ha, preemergence, 0 to 100 scale (0 no effect, 100 complete control)
Procedure, shortened: as §1

[19] = 500 g ai/ha, postemergence, 0 to 100 scale, 0 no effect, 100 complete control
[20] = Postemergence, 125 g ai/ha, visual injury, 0 to 100 scale (0 no effect, 100 complete control), approx. 10 d
[21] = Preemergence, 500 g ai/ha, 0 is no effect, 100 is complete control
[22] = 125 g ai/ha, postemergence, visual injury rating on 0 to 100 scale (0 no effect, 100 complete control), approx. 10 d
[23] = Preemergence, 500 g ai/ha, visual injury approx. 10 d

O=C1NCC(c2ccccc2-c2ccccc2)C1C(=O)Nc1ccccc1F (racemic) [Compound 381]
30: Plant response rating, Barnyardgrass [1, 19] | Foxtail, Giant plant response rating (0 to 100 scale) [15, 21]
0: Plant response rating, Corn (corn (Zea mays); [19]) | Plant response rating, Corn (corn (Zea mays); [20]) | Plant response rating, Barnyardgrass [1, 20] | Plant response rating, Pigweed [2, 19] | Plant response rating, Pigweed [2, 20] | Plant response rating, Foxtail, Giant [3, 20] | Plant response rating, Galium [4, 19] | Plant response rating, Galium [4, 20] | Plant response rating, Blackgrass [5, 19] | Plant response rating, Blackgrass [5, 20] | Plant response rating, Kochia (Kochia (Kochia scoparia) [6]; [19]) | Plant response rating, Kochia (Kochia (Kochia scoparia) [6]; [20]) | Plant response rating, Ryegrass, Italian [7, 19] | Plant response rating, Ryegrass, Italian [7, 20] | Plant response rating, Wheat [8, 19] | Plant response rating, Wheat [8, 20] | Plant response rating, Ragweed [9, 19] | Plant response rating, Ragweed [9, 20] | Plant response rating, Barnyardgrass [10] | Plant response rating, Ducksalad [11] | Plant response rating, Rice (rice (Oryra sativa)) | Plant response rating, Sedge, Umbrella [12] | Plant response rating, Barnyardgrass [13] | Plant response rating, Pigweed [14] | Pigweed plant response rating (0 to 100 scale) [14, 21] | Plant response rating, Foxtail, Giant [15] | Plant response rating, Kochia (Kochia (Kochia scoparia) [16]) | Kochia plant response rating (0 to 100 scale) (Kochia (Kochia scoparia) [16]; [21]) | Plant response rating, Ryegrass, Italian [17] | Ryegrass, Italian plant response rating (0 to 100 scale) [17, 21] | Plant response rating, Ragweed [18] | Ragweed plant response rating (0 to 100 scale) [18, 21]
20: Plant response rating, Foxtail, Giant [3, 19] | Barnyardgrass plant response rating (0 to 100 scale) [13, 21]

CN1CC(c2ccc(F)cc2)C(C(=O)Nc2ccccc2S(C)(=O)=O)C1=O (stereo not drawn) [Compound 439]
20: Plant response rating, Corn (corn (Zea mays); [19]) | Plant response rating, Ragweed [9, 19]
100: Plant response rating, Ducksalad [11] | Foxtail, Giant plant response rating (0 to 100 scale, 0 is no effect, 100 is complete control) [15, 23]
30: Kochia plant response rating (Kochia (Kochia scoparia) [6]; [22]) | Plant response rating, Ryegrass, Italian [7, 19]
50: Plant response rating, Pigweed [2, 19] | Plant response rating, Galium [4, 19] | Plant response rating, Pigweed [14] | Ryegrass, Italian plant response rating (0 to 100 scale, 0 is no effect, 100 is complete control) [17, 23]
70: Plant response rating, Kochia (Kochia (Kochia scoparia) [6]; [19]) | Plant response rating, Kochia (Kochia (Kochia scoparia) [16]) | Kochia plant response rating (0 to 100 scale, 0 is no effect, 100 is complete control) (Kochia (Kochia scoparia) [16]; [23])
40: Pigweed plant response rating [2, 22] | Galium plant response rating [4, 22] | Plant response rating, Wheat [8, 19] | Plant response rating, Barnyardgrass [10]
60: Plant response rating, Blackgrass [5, 19] | Ragweed plant response rating (0 to 100 scale, 0 is no effect, 100 is complete control) [18, 23]
0: Corn plant response rating (corn (Zea mays); [22]) | Blackgrass plant response rating [5, 22] | Ryegrass, Italian plant response rating [7, 22] | Wheat plant response rating [8, 22] | Ragweed plant response rating [9, 22] | Plant response rating, Rice (rice (Oryra sativa)) | Plant response rating, Sedge, Umbrella [12] | Plant response rating, Ryegrass, Italian [17] | Plant response rating, Ragweed [18]
90: Barnyardgrass plant response rating [1, 22] | Plant response rating, Barnyardgrass [1, 19] | Foxtail, Giant plant response rating [3, 22] | Plant response rating, Foxtail, Giant [3, 19] | Plant response rating, Barnyardgrass [13] | Barnyardgrass plant response rating (0 to 100 scale, 0 is no effect, 100 is complete control) [13, 23] | Plant response rating, Foxtail, Giant [15]
80: Pigweed plant response rating (0 to 100 scale, 0 is no effect, 100 is complete control) [14, 23]
